Laboratory results from ChEMBL document CHEMBL3580622 (J Nat Prod, 2015).

Experiments:
MCF7 = test: Cytotoxicity against human MCF7 cells assessed as reduction in cell viability after 48 hrs by MTT assay; assay type: functional, cell-based; settings: MCF7, 48 h
SW480 = test: Cytotoxicity against human SW480 cells assessed as reduction in cell viability after 48 hrs by MTT assay; assay type: functional, cell-based; settings: SW480, 48 h
HL-60 = test: Cytotoxicity against human HL60 cells assessed as reduction in cell viability after 48 hrs by MTT assay; assay type: functional, cell-based; settings: HL-60, 48 h
SMMC-7721 = test: Cytotoxicity against human SMMC7721 cells assessed as reduction in cell viability after 48 hrs by MTT assay; assay type: functional, cell-based; settings: SMMC-7721, 48 h
A549 = test: Cytotoxicity against human A549 cells assessed as reduction in cell viability after 48 hrs by MTT assay; assay type: functional, cell-based; settings: A549, 48 h
Acetylcholinesterase = Acetylcholinesterase (Homo sapiens, UniProt P22303); test: Inhibition of human erythrocytes acetylcholinesterase after 30 mins using S-acetylthiocholine iodide substrate by spectrophotometry based Ellman method
Acetylcholinesterase, sequence (P22303 whole entry): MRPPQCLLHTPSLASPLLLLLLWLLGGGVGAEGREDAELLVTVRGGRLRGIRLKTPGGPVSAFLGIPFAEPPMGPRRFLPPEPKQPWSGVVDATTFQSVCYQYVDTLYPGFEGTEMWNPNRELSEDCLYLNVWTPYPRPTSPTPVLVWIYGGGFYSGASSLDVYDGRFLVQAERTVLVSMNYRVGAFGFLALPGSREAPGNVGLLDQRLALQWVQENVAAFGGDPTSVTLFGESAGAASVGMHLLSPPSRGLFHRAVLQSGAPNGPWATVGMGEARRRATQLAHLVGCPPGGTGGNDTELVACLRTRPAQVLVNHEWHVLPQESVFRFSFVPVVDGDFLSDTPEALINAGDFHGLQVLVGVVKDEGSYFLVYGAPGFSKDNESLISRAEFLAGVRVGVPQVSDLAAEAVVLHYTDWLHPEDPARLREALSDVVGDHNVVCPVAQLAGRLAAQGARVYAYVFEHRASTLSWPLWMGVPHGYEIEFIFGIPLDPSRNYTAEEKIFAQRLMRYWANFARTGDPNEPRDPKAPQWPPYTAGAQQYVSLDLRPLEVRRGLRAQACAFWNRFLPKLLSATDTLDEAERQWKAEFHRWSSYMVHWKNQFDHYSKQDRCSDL

**Q.** Which IC50 (MCF7) does the source give for `CC(C)=CCC[C@]1(C)[C@@H](CC=C(C)C)C[C@]2(CC=C(C)C)C(=O)C(CC=C(C)C)=C(O)[C@@]1(C(=O)C(C)C)C2=O` here?
**A.** > 40 µM

**Q.** And the IC50 (SW480)?
**A.** > 40 µM

**Q.** What about the IC50 (HL-60) of the same compound?
**A.** > 40 µM

**Q.** What about the IC50 (SMMC-7721) of the same compound?
**A.** > 40 µM

**Q.** And the IC50 (A549)?
**A.** > 40 µM

**Q.** `CCC(C)C(=O)[C@]12C(=O)[C@]3(CC=C(C)C)C[C@H](CC=C(C)C)[C@@]1(C)CC[C@@H](C(C)(C)O)OC2=C(CC=C(C)C)C3=O` (some centres undefined) was tested. Which IC50 (Acetylcholinesterase) did it give?
**A.** 37.2 µM

**Q.** Which IC50 (Acetylcholinesterase) does the source give for `C=C(C)[C@H]1CC[C@@](C)(O)[C@@H](C2=C(O)C(CC=C(C)C)(CC=C(C)C)C(=O)C(C(=O)C(C)C)=C2O)C1` here?
**A.** 25.4 µM

**Q.** Which IC50 (MCF7) does the source give for `CC(C)=CC[C@H]1C[C@]23C[C@H]4C(C)(C)c5ccccc5C(=O)[C@]45C(=O)[C@](CC=C(C)C)(C2=O)[C@@H](CC=C(C)C)[C@@]1(C)[C@@]35O` here?
**A.** 27.7 µM

**Q.** What about the IC50 (SW480) of the same compound?
**A.** > 40 µM

**Q.** What about the IC50 (HL-60) of the same compound?
**A.** 14 µM

**Q.** What about the IC50 (SMMC-7721) of the same compound?
**A.** 20.8 µM

**Q.** What about the IC50 (A549) of the same compound?
**A.** 19.3 µM

**Q.** Which IC50 (MCF7) does the source give for `CC(C)=CC[C@]12C[C@@H]3[C@@H]4[C@@H](O)C(C)(C)[C@@H](C(C)C)CC4(C1=O)C(=O)[C@](C(=O)c1ccccc1)(C2=O)C3(C)C` here?
**A.** 14.1 µM

**Q.** What about the IC50 (SW480) of the same compound?
**A.** 17.4 µM

**Q.** And the IC50 (HL-60)?
**A.** 16.5 µM

**Q.** What about the IC50 (SMMC-7721) of the same compound?
**A.** 16.5 µM

**Q.** And the IC50 (Acetylcholinesterase)?
**A.** 26.4 µM

**Q.** And the IC50 (A549)?
**A.** 14.2 µM

**Q.** With `CC(C)=CCC/C(C)=C/C[C@]12C[C@@H]3[C@@H]4[C@@H](O)C(C)(C)[C@@H](C(C)C)CC4(C1=O)C(=O)[C@](C(=O)c1ccccc1)(C2=O)C3(C)C` as the compound, how does the IC50 (MCF7) read?
**A.** 17.6 µM

**Q.** And the IC50 (SW480)?
**A.** 19.1 µM

**Q.** And the IC50 (HL-60)?
**A.** 14.5 µM

**Q.** What about the IC50 (SMMC-7721) of the same compound?
**A.** 14.2 µM

**Q.** And the IC50 (A549)?
**A.** 13.3 µM

**Q.** For `CC(C)=CC[C@]12C[C@@H]3[C@@H]4[C@@H](O)C(C)(C)[C@@H](C(C)(C)O)CC4(C1=O)C(=O)[C@](C(=O)c1ccccc1)(C2=O)C3(C)C`, which IC50 (MCF7) is on record?
**A.** 28.4 µM

**Q.** And the IC50 (SW480)?
**A.** > 40 µM

**Q.** What about the IC50 (HL-60) of the same compound?
**A.** 17.1 µM

**Q.** What about the IC50 (SMMC-7721) of the same compound?
**A.** 20.8 µM

**Q.** What about the IC50 (A549) of the same compound?
**A.** 24.9 µM

**Q.** With `C/C(=C\C[C@]12C[C@H]3C[C@@H]4C(C)(C)CC[C@@]4(C1=O)C(=O)[C@](C(=O)c1ccccc1)(C2=O)C3(C)C)CC/C=C/C(C)C` as the compound, how does the IC50 (Acetylcholinesterase) read?
**A.** 9.8 µM

**Q.** What does the source list for `CCC(C)C(=O)[C@]12C(=O)[C@]3(CC=C(C)C)OC1(O)[C@](CC=C(C)C)(C[C@H](CC=C(C)C)[C@@]2(C)CCC=C(C)C)C3=O` (some centres undefined)?
**A.** IC50 (MCF7): > 40 µM; IC50 (SW480): > 40 µM; IC50 (HL-60): > 40 µM; IC50 (SMMC-7721): > 40 µM; IC50 (A549): > 40 µM

**Q.** What does the source list for `CC(C)=CCC[C@]1(C)[C@@H](CC=C(C)C)C[C@]23C[C@@H](C(C)(C)O)OC2=C(CC=C(C)C)C(=O)[C@@]1(C(=O)C(C)C)C3=O`?
**A.** IC50 (MCF7): > 40 µM; IC50 (SW480): > 40 µM; IC50 (HL-60): > 40 µM; IC50 (SMMC-7721): > 40 µM; IC50 (A549): > 40 µM

**Q.** Which results are given for `CCC(C)C(=O)[C@@]12C(=O)C(CC=C(C)C)=C3O[C@H](C(C)(C)O)C[C@]3(C[C@H](CC=C(C)C)[C@@]1(C)CCC=C(C)C)C2=O` (some centres undefined)?
**A.** IC50 (MCF7): > 40 µM; IC50 (SW480): > 40 µM; IC50 (HL-60): > 40 µM; IC50 (SMMC-7721): > 40 µM; IC50 (A549): > 40 µM

**Q.** With `CC(C)=CCC[C@]1(C)[C@@H](CC=C(C)C)C[C@]23C[C@@H](C(C)(C)O)OC2=C(CC=C(C)C)C(=O)[C@@]1(C(=O)c1ccccc1)C3=O` as the compound, how does the IC50 (MCF7) read?
**A.** > 40 µM

**Q.** And the IC50 (SW480)?
**A.** > 40 µM

**Q.** What about the IC50 (HL-60) of the same compound?
**A.** > 40 µM

**Q.** And the IC50 (SMMC-7721)?
**A.** > 40 µM

**Q.** What about the IC50 (A549) of the same compound?
**A.** > 40 µM

**Q.** `CC(C)=CCC1(CC=C(C)C)C(=O)[C@]2(C[C@H]3[C@@H](CC[C@@]3(C)O)[C@](C)(O)C2)C(=O)C(C(=O)C(C)C)=C1O` was tested. Which IC50 (MCF7) did it give?
**A.** > 40 µM

**Q.** What about the IC50 (SW480) of the same compound?
**A.** > 40 µM

**Q.** What about the IC50 (HL-60) of the same compound?
**A.** > 40 µM

**Q.** And the IC50 (SMMC-7721)?
**A.** > 40 µM

**Q.** What about the IC50 (A549) of the same compound?
**A.** > 40 µM

**Q.** What does the source list for `CC(C)=CCC/C(C)=C/C[C@]12C[C@@H]3[C@H](C=C(C)C)[C@](CC=C(C)C)(C1=O)C(=O)[C@](C(=O)c1ccccc1)(C2=O)C3(C)C`?
**A.** IC50 (MCF7): > 40 µM; IC50 (SW480): > 40 µM; IC50 (HL-60): > 40 µM; IC50 (SMMC-7721): > 40 µM; IC50 (A549): > 40 µM

**Q.** How did the IC50 (MCF7) turn out when `CC(C)=CCC[C@]1(C)[C@@H](CC=C(C)C)C[C@]2(CC=C(C)C)C(=O)[C@@]3(CC=C(C)C)OC2(O)[C@]1(C(=O)C(C)C)C3=O` was run?
**A.** > 40 µM

**Q.** And the IC50 (SW480)?
**A.** > 40 µM

**Q.** And the IC50 (HL-60)?
**A.** > 40 µM

**Q.** And the IC50 (SMMC-7721)?
**A.** > 40 µM

**Q.** And the IC50 (A549)?
**A.** > 40 µM

**Q.** What does the source list for `CC(=O)O[C@H]1C(=O)[C@@]2(C)[C@H]([C@H](OC(=O)c3ccccc3)[C@]3(O)C[C@H](OC(=O)[C@H](O)[C@@H](NC(=O)c4ccccc4)c4ccccc4)C(C)=C1C3(C)C)[C@]1(OC(C)=O)CO[C@@H]1C[C@@H]2O` [PACLITAXEL]?
**A.** IC50 (MCF7): < 0.008 µM; IC50 (SW480): < 0.008 µM; IC50 (HL-60): < 0.008 µM; IC50 (SMMC-7721): < 0.008 µM; IC50 (A549): < 0.008 µM

**Q.** How did the IC50 (MCF7) turn out when `CC(C)=CC[C@]12C[C@@H]3[C@H](C=C(C)C)[C@](CC=C(C)C)(C1=O)C(=O)[C@](C(=O)c1ccccc1)(C2=O)C3(C)C` [PLUKENETIONE A] was run?
**A.** 27.7 µM

**Q.** And the IC50 (SW480)?
**A.** > 40 µM

**Q.** And the IC50 (HL-60)?
**A.** 23.6 µM

**Q.** And the IC50 (SMMC-7721)?
**A.** 16.6 µM

**Q.** What about the IC50 (A549) of the same compound?
**A.** 19.8 µM
